Format in all cases: physicochemical
Series [1] in a line: Solubility test of Compound A, H2SO4 in a HP-β-cyclodextrin as a function of the pH. The settings on record: for solubility at 24 h: aqueous HP-β-cyclodextrin (Cavitron W7HP5) solution, aqueous with cosolvent or surfactant or cyclodextrin, thermodynamic from solid, read-out: Solubility after 24 h. Here is the method: The solubility of ‘Compound A, H2SO4’ was studied in the presence of a HP-β-cyclodextrin as a function of the pH.
10 g of the cyclodextrin studied (Cavitron™ W7HP5) are placed in a 50 mL graduated flask. 40 mL of water are then added. The whole is placed under magnetic stirring. The volume is then made up with water to 50 mL.
Approximately 856.7 mg of ‘Compound A, H2SO4’ are weighed. 30 mL of the medium containing the carrier to be tested, that is to say Cavitron™ W7HP5, are then added. The whole is placed under magnetic stirring for 24 hours. The suspension so obtained is passed through a 0.2 μm filter (PALL—PES membrane—diameter 25 mm) before being analysed by HPLC.
In other tests, the pH of the solution is then modified by means of 0.1 N NaOH solution until values of 4 and 8.8 are reached, before the analysis by HPLC chromatography is carried out.

Series [2] is described as follows: pH of precipitation by addition of NaOH to a HP-β-cyclodextrin solution (Example 9). The following applies: hydrogen sulfate salt in Cavitron W7H5 solution; 0.5M NaOH added; visual; duplicate. Here is the method: The objective of this study is to define the pH of precipitation of Compound A (hydrogen sulfate salt) from HP-β-cyclodextrin solution to better understand the risk of precipitation and select the pH of the drug product.
Weigh 10 g of Cavitron™ W7H5 in a 50 mL flask. Add 26 g of water and then solubilize the Cavitron™ W7H5 under magnetic agitation. Carefully add 1.14 g of Compound A under magnetic agitation and then add 6.5 mL of water. Solubilize Compound A using magnetic agitation at 60° C. Once totally solubilized, cool down the solution at room temperature then rinse the upper edges of the flask with 0.5 mL of water. The total amount of water added is […].
Slowly add 0.5M NaOH solution under continuous agitation (add 100 μL at each addition step) up to a precipitation is visually observed. The experiment was performed in duplicate. The precipitated solid is separated and dried to be analyzed by RMN, XRPD, XRF, and HPLC.

Series [3] in a line: Physical and chemical stability over time of solutions diluted in G5. The settings on record: 12, 20 and 1000 mg/250 mL of G5. Here is the method:
Moreover, studies of physical stability over time (24 h, 48 h and 72 h) are carried out on the solutions obtained hereinbefore. In particular, these studies include the particle count of the tested solutions in accordance with the method described in the text of the European Pharmacopoeia 2.9.19. Tests 1.B (i.e. counting of the sub-visible particles by light obscuration).
Studies of chemical stability over time (24 h, 48 h and 72 h) are also put in place in order to ensure the stability of the product under laboratory light (1500 lux) and various heat conditions (ambient temperature, 5° C.). These studies include especially measurements of the amount of active ingredient and degradation products. Pharmaceutical compositions of Compound A solubilised by means of a Cavitron™ W7H5 solution diluted in G5 solution were tested for the following concentrations: 12 mg/250 mL, 20 mg/250 mL and 1000 mg/250 mL of G5 solution.

The nature of series [4]: pH, appearance and precipitation pH of solutions diluted in 250 mL of glucose 5% solution (G5). The settings on record: for pH: hydrogen sulfate salt in Cavitron W7H5; for Precipitation pH (by light obscuration technique) / Precipitation pH (by visual observation): pH increased with NaOH 0.01N. How it is done: The Compound A used is in the form of a hydrogen sulfate salt. Invisible particulate contamination of the solutions was also controlled by light obscuration technique.
A mother solution containing a dose of 200 mg/mL of Cavitron™ W7H5 and 20 mg/mL of Compound A (expressed for the free base) is prepared by dissolving a lyophilisate as described in Example 5 in the necessary amount of water. The solution so obtained is then diluted by means of glucose 5% solution (G5).
The pH of the solutions obtained is measured and the appearance of the solutions is observed. The pH is increased using NaOH 0.01N solution until a precipitation is observed.

The mark [5] stands for this setting: 12 mg of Compound A in 250 mL of G5.
Setting [6] is: 25 mg of Compound A in 250 mL of G5.
[7] abbreviates: 50 mg of Compound A in 250 mL of G5.
Setting [8] is: 100 mg of Compound A in 250 mL of G5.
Setting [9] is: 250 mg of Compound A in 250 mL of G5.
The mark [10] stands for this setting: 500 mg of Compound A in 250 mL of G5.
Setting [11] is: 1000 mg of Compound A in 250 mL of G5.

The results in this text go back to patent publication US20210353633A1, “CYCLODEXTRIN-BASED FORMULATION OF A BCL-2 INHIBITOR” (LES LABORATOIRES SERVIER, priority 2018, published 2021).

≈ marks a conversion by molar mass, not a printed value. Where two headings read alike, the source gives them in different places.

As a reminder, the solubility is the dissolved amount per volume that the medium holds.

Take `Cc1c(N(C(=O)c2cc(-c3cc(Cl)ccc3C(=O)N3Cc4ccccc4C[C@H]3CN3CCOCC3)n(C)c2C)c2ccc(O)cc2)cc(C#N)n1C` [Compound A, H2SO4, 5-(5-chloro-2-{[(3S)-3-(morpholin-4-ylmethyl)-3,4-dihydroisoquinolin-2(1H)-yl]carbonyl}phenyl)-N-(5-cyano-1,2-dimethyl-1H-pyrrol-3-yl)-N-(4-hydroxyphenyl)-1,2-dimethyl-1H-pyrrole-3-carboxamide]: the “pH from which a precipitate is visually observed” value in series [1] (Cavitron W7HP5 200 mg/mL, pH raised with 0.1 N NaOH) is recorded as 3.2. For the same molecule, the solubility at 24 h in series [1] (Cavitron W7HP5 200 mg/mL + 0.1N NaOH, pH 4.01) came to 17.1 mg/mL; in series [1] (Cavitron W7HP5 200 mg/mL + 0.1N NaOH, pH 8.8) it was 0.99 mg/mL; in series [1] (Cavitron W7HP5 200 mg/mL, pH 1.86 (without adjustment)), 21.6 mg/mL (≈ 30.1 mM).

In the case of `Cc1c(N(C(=O)c2cc(-c3cc(Cl)ccc3C(=O)N3Cc4ccccc4C[C@H]3CN3CCOCC3)n(C)c2C)c2ccc(O)cc2)cc(C#N)n1C` [Compound A, 5-(5-chloro-2-{[(3S)-3-(morpholin-4-ylmethyl)-3,4-dihydroisoquinolin-2(1H)-yl]carbonyl}phenyl)-N-(5-cyano-1,2-dimethyl-1H-pyrrol-3-yl)-N-(4-hydroxyphenyl)-1,2-dimethyl-1H-pyrrole-3-carboxamide], the “pH at which drug precipitation was observed” value in series [2] worked out at 4.27. The chemical degradation product entry in series [3] (laboratory light (1500 lux), ambient temperature and 5° C., during 72 h) was “No significant chemical degradation product was observed”. Moreover, the “rate of sub-visible particles (light obscuration method)” value in series [3] (up to 72 h) is on record as “in accordance with the requirement of the European Pharmacopoeia 2.9.19”. The “Appearance of the solution after 15 min” value in series [4] (setting [5]), in series [4] (setting [6]), in series [4] (setting [7]), in series [4] (setting [8]), in series [4] (setting [9]) and in series [4] (setting [10]) was “clear” each time. The “Appearance of the solution after 15 min” value in series [4] (setting [11]) is given as “clear”. The pH in series [4] (setting [5]) was 3.7-4.310; in series [4] (setting [6]), 3.9-4.240; in series [4] (setting [7]), 3.8-4.158; in series [4] (setting [8]) it was 3.8-4.033; in series [4] (setting [9]), 3.7-3.809; in series [4] (setting [10]), 3.5-3.613. The pH in series [4] (setting [11]) is 3.3-3.401. For the same molecule, the “Precipitation pH (by light obscuration technique)” value was 5.4 in series [4] (setting [5]); 4.8 in series [4] (setting [6]); 4.5 in series [4] (setting [7]); 4.3 in series [4] (setting [8]); 4.1 in series [4] (setting [9]); 4.0 in series [4] (setting [10]). Besides, in series [4] (setting [11]), the “Precipitation pH (by light obscuration technique)” value was found to be 4.0. The “Precipitation pH (by visual observation)” value in series [4] (setting [5]) is listed as 8.609; in series [4] (setting [6]), 5.220; in series [4] (setting [7]), 5.143; in series [4] (setting [8]), 4.872; in series [4] (setting [9]) it was 4.388; in series [4] (setting [10]) it was 4.378. The “Precipitation pH (by visual observation)” value in series [4] (setting [11]) is listed as 4.254. Further, the “precipitation when diluted in G5 solution” value in series [4] (concentrations between 12 and 1000 mg/250 mL of G5 solution, solubilised by Cavitron W7H5 solution) was “do not precipitate”.
